Key:
Experiment in all cases: Weed control test, foliage treatment (Test Example 1, Table 7)
[1] = tested on: TRZAW (Tritium aestivum L., wheat); settings: in vivo
Experimental: (§1) Seeds of rice, wheat, soy bean, barley, corn, common sorgum, barnyard grass, large crabgrass, creek grass, green foxtail and fall panicum were placed in sandy loam in 600 cm^2 pots and covered with soil. After keeping the pots in a greenhouse at 20 to 30° C. allowing growth of the plants to the 3-leaf stage of the barnyard grass, 2,000 l/ha of an emulsion obtained by diluting with water a mixture of 1 part by weight of a test compound, 5 parts by weight of acetone and 1 part by weight of an emulsifying agent (Tween 80, Junsei) was applied to the surface of the foliage of the plants. The plant damage at 10 days and 20 days after the foliage treatment was visually evaluated from the level of 1 to 100% by comparison with the untreated control: […]

[2] = tested on: HORVU (Hordeum vulgare L., barley); settings: in vivo
Experimental: as §1

[3] = tested on: GLXMA (Glycine max(L.) MERR, soy bean); settings: in vivo
Experimental: as §1

[4] = tested on: ORYSA (Oryza sativa cv. Dongjin, rice); settings: in vivo
Experimental: as §1

[5] = tested on: SORBI (Andropogon sorghum, common sorgum); assay type: in vivo; settings: Sorghum bicolor, foliar, read-out: Plant damage (herbicidal activity), visually evaluated, SORBI; for pest or weed control at 25 g/ha: 0.025 kg/ha; for pest or weed control at 100 g/ha: 0.1 kg/ha; for pest or weed control at 200 g/ha: 0.2 kg/ha
Experimental: as §1

[6] = tested on: PANDI (Panium dichotomiflorum Michx, fall panicum); assay type: in vivo; settings: Panicum dichotomiflorum, foliar, read-out: Plant damage (herbicidal activity), visually evaluated, PANDI; for pest or weed control at 25 g/ha: 0.025 kg/ha; for pest or weed control at 100 g/ha: 0.1 kg/ha; for pest or weed control at 200 g/ha: 0.2 kg/ha
Experimental: as §1

[7] = tested on: ECHOG (Echinoch crus-galli Beauv. var. caudata Kitagawa, barnyard grass); assay type: in vivo; settings: Echinochloa crus-galli, foliar, 3-leaf stage, read-out: Plant damage (herbicidal activity), visually evaluated, ECHOG; for pest or weed control at 25 g/ha: 0.025 kg/ha; for pest or weed control at 100 g/ha: 0.1 kg/ha; for pest or weed control at 200 g/ha: 0.2 kg/ha
Experimental: as §1

[8] = tested on: DIGSA (Digitaria Sanguinalis (L.) SCOP, large crabgrass); assay type: in vivo; settings: Digitaria sanguinalis, foliar, read-out: Plant damage (herbicidal activity), visually evaluated, DIGSA; for pest or weed control at 25 g/ha: 0.025 kg/ha; for pest or weed control at 100 g/ha: 0.1 kg/ha; for pest or weed control at 200 g/ha: 0.2 kg/ha
Experimental: as §1

[9] = tested on: SETVIR (Setaria viridis (L.) Beauv, green foxtail); assay type: in vivo; settings: Setaria viridis, foliar, read-out: Plant damage (herbicidal activity), visually evaluated, SETVIR; for pest or weed control at 25 g/ha: 0.025 kg/ha; for pest or weed control at 100 g/ha: 0.1 kg/ha; for pest or weed control at 200 g/ha: 0.2 kg/ha
Experimental: as §1

[10] = tested on: ARTHIS (Arthraxon hispidus (Thunb.) Makino, creek grass); assay type: in vivo; settings: Arthraxon hispidus, foliar, read-out: Plant damage (herbicidal activity), visually evaluated, ARTHIS; for pest or weed control at 25 g/ha: 0.025 kg/ha; for pest or weed control at 100 g/ha: 0.1 kg/ha; for pest or weed control at 200 g/ha: 0.2 kg/ha
Experimental: as §1

[11] = tested on: ZEAMX (Zea mays L., corn); assay type: in vivo; settings: Zea mays, foliar, read-out: Plant damage (herbicidal activity), visually evaluated, ZEAMX; for plant injury at 25 g/ha: 0.025 kg/ha; for plant injury at 100 g/ha: 0.1 kg/ha; for plant injury at 200 g/ha: 0.2 kg/ha
Experimental: as §1

Row | SMILES | Plant damage (herbicidal activity), visually evaluated, TRZAW [1] [%] | Plant damage (herbicidal activity), visually evaluated, HORVU [2] [%] | Plant damage (herbicidal activity), visually evaluated, GLXMA [3] [%] | pest or weed control at 25 g/ha [5] [%] | pest or weed control at 100 g/ha [5] [%] | pest or weed control at 200 g/ha [5] [%] | pest or weed control at 25 g/ha [6] [%] | pest or weed control at 100 g/ha [6] [%] | pest or weed control at 200 g/ha [6] [%] | pest or weed control at 25 g/ha [7] [%] | pest or weed control at 100 g/ha [7] [%] | pest or weed control at 200 g/ha [7] [%] | pest or weed control at 25 g/ha [8] [%] | pest or weed control at 100 g/ha [8] [%] | pest or weed control at 200 g/ha [8] [%] | pest or weed control at 25 g/ha [9] [%] | pest or weed control at 100 g/ha [9] [%] | pest or weed control at 200 g/ha [9] [%] | pest or weed control at 25 g/ha [10] [%] | pest or weed control at 100 g/ha [10] [%] | also measured
1 | C[C@@H](Oc1ccc(Oc2ccc(C#N)cc2F)cc1)C(=O)Nc1nc2ccccc2s1 [Example 19, (R)-2-[4-(4-cyano-2-fluorophenoxy)phenoxy]propionic acid-N-(2-benzothiazolyl)amide] | 0 | 0 | 0 | 20 | 60 | 70 | 0 | 0 | 0 | 0 | 20 | 30 | 0 | 10 | 30 | 0 | 10 | 10 | 0 | 10 | Plant damage (herbicidal activity), visually evaluated, ORYSA [4]: 0%; pest or weed control at 200 g/ha [10]: 10%; plant injury at 25 g/ha [11]: 0%; plant injury at 100 g/ha [11]: 10%; plant injury at 200 g/ha [11]: 30%
2 | C[C@@H](Oc1ccc(Oc2ccc(C#N)cc2F)cc1)C(=O)Nc1nc2ccc(Cl)cc2s1 [Example 21, (R)-2-[4-(4-cyano-2-fluorophenoxy)phenoxy]propionic acid-N-(6-chloro-2-benzothiazolyl)amide] | 0 | 0 | 0 | 0 | 20 | 50 | 0 | 70 | 70 | 20 | 70 | 90 | 0 | 20 | 90 | 0 | 70 | 90 | 0 | 70 | Plant damage (herbicidal activity), visually evaluated, ORYSA [4]: 0%; pest or weed control at 200 g/ha [10]: 70%; plant injury at 25 g/ha [11]: 20%; plant injury at 100 g/ha [11]: 90%; plant injury at 200 g/ha [11]: 100%
3 | COc1ccc2nc(NC(=O)[C@@H](C)Oc3ccc(Oc4ccc(C#N)cc4F)cc3)sc2c1 [Example 27, (R)-2-[4-(4-cyano-2-fluorophenoxy)phenoxy]propionic acid-N-(6-methoxy-2-benzothiazolyl)amide] | 0 | 0 | 0 | 0 | 20 | 20 | 0 | 0 | 10 | 20 | 70 | 90 | 0 | 20 | 90 | 0 | 0 | 20 | 0 | 0 | pest or weed control at 200 g/ha [10]: 10%; plant injury at 25 g/ha [11]: 10%; plant injury at 100 g/ha [11]: 90%; plant injury at 200 g/ha [11]: 90%
4 | C[C@@H](Oc1ccc(OC(F)=Cc2ccc(F)cc2)cc1)C(=O)Nc1nc2cc(Cl)ccc2o1 [Example 52, (R)-2-[4-(1-fluoro-2-(4-fluorophenyl)vinyloxy)phenoxy]propionic acid-N-(5-chloro-2-benzoxazolyl)amide] | 0 | 0 | 0 | 0 | 0 | 0 | 0 | 0 | 0 | 0 | 0 | 20 | 0 | 0 | 10 | 0 | 0 | 10 | 0 | 0 | pest or weed control at 200 g/ha [10]: 0%; plant injury at 25 g/ha [11]: 10%; plant injury at 100 g/ha [11]: 30%; plant injury at 200 g/ha [11]: 30%
